Test results taken from patent publication US4910225A, “Locally administrable therapeutic composition for inflammatory disease” (Senju Pharmaceutical Co., Ltd., priority 1988, dated 1990).

How the values were obtained:
[1] = tested on: carrageenin edema in rats; assay: Carrageenin edema of the conjunctiva in rats; assay type: in vivo; settings: 4 hours after carrageenin; for Weight of Edema: mean ± SE for 10 eyes
Method: 1. Sodium 3-(4-bromobenzoyl)-2-aminophenyl-acetate (hereinafter referred to as Compound [I])
2. Sodium 3-(4-chlorobenzoyl)-2-aminophenyl-acetate (hereinafter referred to as Compound [II])
3. Sodium 3-benzoyl-2-aminophenylacetate (hereinafter referred to as Compound [III])
Using female Wister rates weighing 100 g in groups of 5 animals or 10 eyes, 0.05 ml of 1% carrageenin (dissolved in physiological saline at 50° C.) as a phlogogen was injected beneath the conjuctiva of both eyes to induce edema. Physiological saline, as a control, and test drugs were respectively instilled into both eyes 40 and 20 minutes before and immediately after the injection of carrageenin, in the amount of 2.5 μl per dose. Four hours after the phlogogen treatment, each animal was sacrificed by cervical dislocation and in accordance with the method of Maistrello et al.^(2), the scalp was peeled off toward the eyelid and the edematous portion together with the skin was removed along the lid margin and weighed.
^(2) Maistrello et al.: Quantitative Effect of Topically Applied Anti-inflammatory Agents on External Ocular Inflammation in Rats: Journal of Pharmaceutical Science, volume 62, pp. 1455-60(1973).

[2] = tested on: atropine-resistant miosis; assay: Atropine-resistant miosis after paracentesis; assay type: in vivo, albino rabbits
Method: (§1) The solutions of the following formulas were used.
(§2) Totally 28 male albino rabbits (4 rabbits×7 groups) with a body weight of about 2 kg werr used. They had been confirmed, before the experiment, to have mydriatic response to 1% atropine for at least 4 hours.
(§3) 50 μl each of 1% atropine solution was instilled into both eyes of the animals one hour before the 1st paracenthesis, in which approx. 0.2 ml/eye of aqueous humor (primary aqueous humor) was collected. Topical application of 50 μl each of the test drug solutions was conducted 30 min before the paracenthesis. Pupil diameter of each eye was measured with a slide caliper immediately before and 10 min after the paracenthesis. The 2nd paracenthesis was conducted 90 min after the 1st one, in which approx. 0.2 ml/eye of aqueous humor (secondary aqueous humor) was collected.

[3] = tested on: protein increase after paracentesis; assay: Protein increase in aqueous humor after paracentesis; assay type: in vivo, albino rabbits; settings: content 0.5%
Method: as §1, §2, §3

cyclooxgenase = settings: cited from earlier work

SMILES | Degree of inhibition (carrageenin edema) ([1]; 1.0%) [%] | Weight of Edema ([1]; 1.0%) [mg] | Degree of inhibition (carrageenin edema) ([1]; 5.0%) [%] | Weight of Edema ([1]; 5.0%) [mg] | Degree of inhibition (carrageenin edema) ([1]; 0.5%) [%] | Weight of Edema ([1]; 0.5%) [mg] | Inhibitory activity on miosis after paracentesis ([2]; Compound [I] 0.0001-0.1%, indomethacin as high as 0.5%) | Inhibition (miosis) ([2]; content 0.5%) [%] | Miosis ([2]; content 0.5%, 10 min after paracentesis) [%] | Inhibition (protein increase) [3] [%] | Cyclooxygenase inhibitory activity (cyclooxgenase)
Nc1c(CC(=O)[O-])cccc1C(=O)c1ccccc1.[Na+] [Compound [III], Sodium 3-benzoyl-2-aminophenylacetate] | 41.4 | 30.98 ± 3.194 | 37.9 | 32.80 ± 2.409 | – | – | – | – | – | – | –
Nc1c(CC(=O)[O-])cccc1C(=O)c1ccc(Cl)cc1.[Na+] [Compound [II], Sodium 3-(4-chlorobenzoyl)-2-aminophenyl-acetate] | 34.4 | 39.02 ± 3.057 | – | – | 36.9 | 37.52 ± 2.423 | – | – | – | – | –
COc1ccc2c(c1)c(CC(=O)O)c(C)n2C(=O)c1ccc(Cl)cc1 [Indomethacin, reference compound] | – | – | – | – | – | – | little effect was observed | 6.0 ± 21.4 | 16.4 ± 3.86 | 69.7 | strong cyclooxgenase inhibitory activity
